Measurements reported in patent US6075018A, “1-[2-(substituted vinyl)]-3,4-dihydro-4-dihydro-5H-2,3-benzodiazepine derivatives” (priority 1995, dated 2000).

Experiments:
[1] = test system: convulsions evoked by pentetrazole; assay: Inhibition of pentetrazole-evoked convulsions, method of Goodmann et al.; type: in vivo; settings: Mus musculus, ip; mice, 30 mg/kg i.p.; 50 mg/kg i.v. pentetrazole
Protocol: The compounds of general formula (I) exert a moderate anticonvulsive effect, too. This latter was measured in mice applying the method of Goodmann et al.[J. Pharmacol. Exp. Ther. 106, 319, (1952)]. The convulsions evoked by 50 mg/kg i.v. of pentetrazole were inhibited by 30-40% and 50-55% after the i.p. administration of 30 mg/kg of the compounds of Examples 10., 11., 13., 19., 28., 35, 40., and Examples 34 and 38, respectively.

mice = assay: Acute toxicity (dead/treated animals); type: in vivo
Protocol: The SMA inhibiting effect and the acute toxicity data (dead/treated animals, shown in brackets) of the new compounds are provided in Table II.
The experiments were performed according to the method of S.Irwin [Psychopharm. 13, 222 (1968)].

[2] = test system: stereotypy induced by amphetamine; assay: Potentiation of the stereotypy induced by amphetamine, scale of Constall and Naylor; type: in vivo; settings: ip; 10 mg/kg i.p. + amphetamine 3 mg/kg s.c.
Protocol: The potentiation of the stereotypy evoked by amphetamine was evaluated according to the scale of Constall and Naylor (Eur. J. Pharmacol. 18, 95, 1972).
*10 mg/kg i.p. + amphetamine 3 mg/kg s.c.

[3] = test system: hippocampal CA1 field potentials (glutamate acting mainly through AMPA receptors); assay: Inhibition of CA1 field potentials in hippocampal slices (glutamatergic transmission), method of Tarnawa et al.; parameters: species or system rat; settings: for Inhibition (%) 30 minutes after drug administration / Inhibition (%) 60 minutes after drug administration / Inhibition (%) after 30 minutes wash-out / efficacy compared to GYKI-52466: 50 μM; for Inhibition (%) after 30 minutes wash-out: *p < 0.05 compared to the 60 minutes value; for duration of action compared to known molecules / GYKI-52466 / efficacy compared to GYKI-52466: hippocampal slices; for effect of 30 minutes wash-out on the inhibition: wash-out lasting 30 minutes vs preceding 60 minutes incubation
Protocol: The effects of the compounds on the glutamatergic transmission were studied in hippocampal slices applying the method of Tarnawa et al. (Acta Physiol. Hung., 79, 163, 1992). 400 μm thick slices were prepared from rat brain and maintained in a chamber of interface type under simulated […] conditions. The Schaffer collaterals were stimulated and field potentials were recorded from the pyramidal cells of the hippocampal CA1 region. The neurotransmitter involved in this process is glutamate acting mainly through AMPA receptors.

[4] = test system: hippocampal CA1 field potentials (glutamate acting mainly through AMPA receptors); settings: known AMPA antagonist; cited from earlier work
[5] = background statement; cited from earlier work

SMILES: COc1cc2c(cc1OC)C(/C=C/c1cccc(O)c1)=NNC(C)C2 (stereo not drawn) [Example 11]
- inhibition in vivo at 30 mg/kg [1]: 30 to 40%

SMILES: COc1cc2c(cc1OC)C(/C=C/c1ccc3c(c1)OCO3)=NNC(C)C2 (stereo not drawn) [Example 3]
- acute toxicity (dead/treated animals) (mice; i.p. 300 mg/kg): 0/5
- acute toxicity (dead/treated animals) (mice; p.o. 1000 mg/kg): 0/5

SMILES: CC1Cc2cc3c(cc2C(/C=C/c2ccc(N(C)C)cc2)=NN1)OCO3 (stereo not drawn) [Example 9]
- change in vivo at 10 mg/kg [2]: 141%

SMILES: CC1Cc2cc3c(cc2C(/C=C/c2ccccc2)=NN1)OCO3 (stereo not drawn) [Example 27, 1-Styryl-4-methyl-7,8-methylenedioxy-3,4-dihydro-5H-2,3-benzodiazepine]
- change in vivo at 10 mg/kg [2]: 183%
- acute toxicity (dead/treated animals) (mice; i.p. 300 mg/kg): 0/5

SMILES: CCC1c2cc(OC)c(OC)cc2C(/C=C/c2ccc(N)cc2)=NNC1C (stereo not drawn) [Example 35, 1-(4-Aminostyryl)-4-methyl-5-ethyl-7,8-dimethoxy-3,4-dihydro-5H-2,3-benzodiazepine]
- inhibition in vivo at 30 mg/kg [1]: 30 to 40%

SMILES: COc1cc2c(cc1OC)C(/C=C/c1ccc(Cl)c(Cl)c1)=NNC(C)C2 (stereo not drawn) [Example 28, 1-(3,4-Dichlorostyryl)-4-methyl-7,8-dimethoxy-3,4-dihydro-5H-2,3-benzodiazepine]
- change in vivo at 10 mg/kg [2]: 92.5%
- inhibition in vivo at 30 mg/kg [1]: 30 to 40%

SMILES: COc1cc2c(cc1OC)C(/C=C/c1ccc(N)cc1)=NNC(C)C2 (stereo not drawn) [Example 33, 1-(4-Aminostyryl)-4-methyl-7,8-dimethoxy-3,4-dihydro-5H-2,3-benzodiazepine]
- change in vivo at 10 mg/kg [2]: 202%

SMILES: CCC1c2cc(OC)c(OC)cc2C(/C=C/c2ccc([N+](=O)[O-])cc2)=NNC1C (stereo not drawn) [Example 26, 1-(4-Nitrostyryl)-4-methyl-5-ethyl-7,8-dimethoxy-3,4-dihydro-5H-2,3-benzodiazepine]
- acute toxicity (dead/treated animals) (mice; i.p. 300 mg/kg): 0/5
- acute toxicity (dead/treated animals) (mice; p.o. 1000 mg/kg): 0/5

SMILES: COc1cc2c(cc1OC)C(/C=C/c1ccc([N+](=O)[O-])cc1)=NN(C(C)=O)C(C)C2 (stereo not drawn) [Example 30, 1-(4-Nitrostyryl)-3-acetyl-4-methyl-7,8-dimethoxy-3,4-dihydro-5H-2,3-benzodiazepine]
- change in vivo at 10 mg/kg [2]: 100%

SMILES: COc1cc2c(cc1OC)C(/C=C/c1cccc(OC)c1OC)=NN(C(C)=O)C(C)C2 (stereo not drawn) [Example 22, 1-(2,3-Dimethoxystyryl)-3-acetyl-4-methyl-7,8-dimethoxy-3,4-dihydro-5H-2,3-benzodiazepine]
- Inhibition (%) 30 minutes after drug administration [3]: 4.7 ± 0.84%
- Inhibition (%) 60 minutes after drug administration [3]: 37.0 ± 9.19%
- Inhibition (%) after 30 minutes wash-out [3]: 74.3 ± 11.53%
- acute toxicity (dead/treated animals) (mice; i.p. 300 mg/kg): 1/5

SMILES: CC1Cc2cc3c(cc2C(/C=C/c2ccc(N)cc2)=NN1)OCO3 (stereo not drawn) [Example 34, 1-(4-Aminostyryl)-4-methyl-7,8-methylenedioxy-3,4-dihydro-5H-2,3-benzodiazepine]
- change in vivo at 10 mg/kg [2]: 92%
- inhibition in vivo at 30 mg/kg [1]: 50 to 55%

SMILES: CC1Cc2cc3c(cc2C(/C=C/c2ccc4c(c2)OCO4)=NN1)OCO3 (stereo not drawn) [Example 8]
- change in vivo at 10 mg/kg [2]: 113%

SMILES: CC(=O)Nc1ccc(/C=C/C2=NN(C(C)=O)C(C)Cc3cc4c(cc32)OCO4)cc1 (stereo not drawn) [Example 40, 1-(4-Acetylaminostyryl)-3-acetyl-4-methyl-7,8-methylenedioxy-3,4-dihydro-5H-2,3-benzodiazepine]
- change in vivo at 10 mg/kg [2]: 99.7%
- inhibition in vivo at 30 mg/kg [1]: 30 to 40%
- Inhibition (%) 30 minutes after drug administration [3]: 14.8 ± 7.10%
- Inhibition (%) 60 minutes after drug administration [3]: 25.8 ± 3.04%
- Inhibition (%) after 30 minutes wash-out [3]: 35.4 ± 2.67%

SMILES: COc1cc2c(cc1OC)C(/C=C/c1ccc(N(C)C)cc1)=NNC(C)C2 (stereo not drawn) [Example 7]
- change in vivo at 10 mg/kg [2]: 90.2%

SMILES: CCOc1cc2c(cc1OCC)C(/C=C/c1ccc(N(C)C)cc1)=NNC(C)C2 (stereo not drawn) [Example 10]
- change in vivo at 10 mg/kg [2]: 176%
- inhibition in vivo at 30 mg/kg [1]: 30 to 40%

SMILES: COc1ccc(/C=C/C2=NN(C(C)=O)C(C)Cc3cc4c(cc32)OCO4)c(OC)c1 (stereo not drawn) [Example 19, 1-(2,4-Dimethoxystyryl)-3-acetyl-4-methyl-7,8-methylenedioxy-3,4-dihydro-5H-2,3-benzodiazepine]
- inhibition in vivo at 30 mg/kg [1]: 30 to 40%

SMILES: CCC1c2cc(OC)c(OC)cc2C(/C=C/c2ccc(N)cc2)=NN(C(C)=O)C1C (stereo not drawn) [Example 38, 1-(4-Aminostyryl)-3-acetyl-4-methyl-5-ethyl-7,8-dimethoxy-3,4-dihydro-5H-2,3-benzodiazepine]
- inhibition in vivo at 30 mg/kg [1]: 50 to 55%

SMILES: COc1ccc(/C=C/C2=NN(C(C)=O)C(C)Cc3cc(OC)c(OC)cc32)c(OC)c1 (stereo not drawn) [Example 21, 1-(2,4-Dimethoxystyryl)-3-acetyl-4-methyl-7,8-dimethoxy-3,4-dihydro-5H-2,3-benzodiazepine]
- Inhibition (%) 30 minutes after drug administration [3]: 16.1 ± 13.4%
- Inhibition (%) 60 minutes after drug administration [3]: 33.7 ± 7.60%
- Inhibition (%) after 30 minutes wash-out [3]: 61.1 ± 4.56%

SMILES: COc1cc2c(cc1OC)C(/C=C/c1ccccc1)=NN(C(C)=O)C(C)C2 (stereo not drawn) [Example 20, 1-Styryl-3-acetyl-4-methyl-7,8-dimethoxy-3,4-dihydro-5H-2,3-benzodiazepine]
- acute toxicity (dead/treated animals) (mice; i.p. 300 mg/kg): 1/5

SMILES: COc1ccc(/C=C/C2=NNC(C)Cc3cc4c(cc32)OCO4)cc1OC (stereo not drawn) [Example 1, 1-(3,4-Dimethoxystyryl)-4-methyl-7,8-methylenedioxy-3,4-dihydro-5H-2,3-benzodiazepine]
- acute toxicity (dead/treated animals) (mice; i.p. 300 mg/kg): 0/5
- acute toxicity (dead/treated animals) (mice; p.o. 1000 mg/kg): 0/5

SMILES: COc1cc2c(cc1OC)C(/C=C/c1ccc(NC(C)=O)cc1)=NN(C(C)=O)C(C)C2 (stereo not drawn) [Example 39, 1-(4-Acetylaminostyryl)-3-acetyl-4-methyl-7,8-dimethoxy-3,4-dihydro-5H-2,3-benzodiazepine]
- change in vivo at 10 mg/kg [2]: 113%
- Inhibition (%) 30 minutes after drug administration [3]: 85.3 ± 15.09%
- Inhibition (%) 60 minutes after drug administration [3]: 100 ± 0%
- Inhibition (%) after 30 minutes wash-out [3]: 97.5 ± 0.98%
- duration of action compared to known molecules / GYKI-52466 [3]: surpass that of GYKI-52466
- efficacy compared to GYKI-52466 [3]: at least equal efficacy to the molecule GYKI-52466
- effect of 30 minutes wash-out on the inhibition [3]: not able to diminish the effect

SMILES: COc1ccc(/C=C/C2=NNC(C)Cc3cc4c(cc32)OCO4)cc1C(C)C (stereo not drawn) [Example 13]
- inhibition in vivo at 30 mg/kg [1]: 30 to 40%

SMILES: COc1cc2c(cc1OC)C(c1cccc(Cl)c1)=NN=C(C)C2 [Girisopam, 1-(3-chlorophenyl)-4-methyl-7,8-dimethoxy-5H-2,3-benzodiazepine, reference compound]
- acute toxicity (dead/treated animals) (mice; i.p. 300 mg/kg): 0/6

SMILES: CC1=NN=C(c2ccc(N)cc2)c2cc3c(cc2C1)OCO3 [GYKI-52466, 1-(4-aminophenyl)-4-methyl-7,8-methylenedioxy-5H-2,3-benzodiazepine, reference compound]
- inhibition of the CA1 field potentials (in words) [4]: concentration-dependently inhibits the CA1 field potentials
- duration of action (in words) [5]: rather short
- known pharmacological activity (in words) [5]: non-NMDA-glutamic acid antagonist having spasmolytic and antiischemic activities
- Inhibition (%) 30 minutes after drug administration [3]: 94.5 ± 2.07%
- Inhibition (%) 60 minutes after drug administration [3]: 100 ± 0%
- Inhibition (%) after 30 minutes wash-out [3]: 84.6 ± 7.37%
- effect of 30 minutes wash-out on the inhibition [3]: significantly smaller than that observed after the preceding incubation period

SMILES: COc1cc2c(cc1OC)C(/C=C/c1ccccc1Br)=NNC(C)C2 (stereo not drawn) [Example 14]
- change in vivo at 10 mg/kg [2]: 113%

SMILES: COc1cccc(/C=C/C2=NN(C(C)=O)C(C)Cc3cc4c(cc32)OCO4)c1OC (stereo not drawn) [Example 23, 1-(2,3-Dimethoxystyryl)-3-acetyl-4-methyl-7,8-methylenedioxy-3,4-dihydro-5H-2,3-benzodiazepine]
- acute toxicity (dead/treated animals) (mice; i.p. 300 mg/kg): 0/5
- acute toxicity (dead/treated animals) (mice; p.o. 1000 mg/kg): 0/5

SMILES: CCC1c2cc3c(cc2C(/C=C/c2ccc(NC(C)=O)cc2)=NN(C(C)=O)C1C)OCO3 (stereo not drawn) [Example 41, 1-(4-Acetylaminostyryl)-3-acetyl-4-methyl-5-ethyl-7,8-methylenedioxy-3,4-dihydro-5H-2,3-benzodiazepine]
- Inhibition (%) 30 minutes after drug administration [3]: 79.5 ± 10.10%
- Inhibition (%) 60 minutes after drug administration [3]: 100 ± 0%
- Inhibition (%) after 30 minutes wash-out [3]: 98.6 ± 2.67%
- duration of action compared to known molecules / GYKI-52466 [3]: surpass that of GYKI-52466
- efficacy compared to GYKI-52466 [3]: at least equal efficacy to the molecule GYKI-52466
- effect of 30 minutes wash-out on the inhibition [3]: not able to diminish the effect
- acute toxicity (dead/treated animals) (mice; i.p. 300 mg/kg): 0/5
- acute toxicity (dead/treated animals) (mice; p.o. 1000 mg/kg): 0/5
